In PMC10222328 (Pharmaceuticals, 2023) one finds inhibition data, which are given here for 7 compounds.

This assay concerns the target T1, COX-2 (Homo sapiens, UniProt P35354).
T1 construct: purchased Abcam, UK
T1 sequence (P35354 18-604): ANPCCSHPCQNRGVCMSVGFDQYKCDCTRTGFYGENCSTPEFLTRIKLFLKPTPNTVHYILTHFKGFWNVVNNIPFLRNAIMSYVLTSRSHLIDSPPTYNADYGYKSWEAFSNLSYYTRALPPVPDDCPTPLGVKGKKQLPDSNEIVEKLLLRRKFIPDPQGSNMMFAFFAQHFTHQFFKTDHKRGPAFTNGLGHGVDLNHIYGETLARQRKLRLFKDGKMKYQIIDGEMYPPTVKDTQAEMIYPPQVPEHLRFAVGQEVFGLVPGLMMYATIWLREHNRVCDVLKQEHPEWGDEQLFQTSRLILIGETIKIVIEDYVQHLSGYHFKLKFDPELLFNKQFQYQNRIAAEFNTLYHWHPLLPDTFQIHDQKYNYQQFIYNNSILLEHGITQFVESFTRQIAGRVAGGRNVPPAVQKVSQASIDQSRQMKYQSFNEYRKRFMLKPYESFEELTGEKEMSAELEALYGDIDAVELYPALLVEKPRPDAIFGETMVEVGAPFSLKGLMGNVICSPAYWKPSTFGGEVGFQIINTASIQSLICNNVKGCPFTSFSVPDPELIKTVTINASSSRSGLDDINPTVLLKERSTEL
The experiment in a line: Fluorometric COX-2 inhibitor screening kit. Particulars: at 10 µM; mean ± standard error of two measurements; read-out: COX-2 Percent of Inhibition. Type of assay: biochemical. The method, then: COX-2 and 5-LOX inhibitory activities were tested using fluorometric COX-2 and 5-LOX inhibitor screening kits (Abcam, UK). These assays are based on the fluorometric detection of Prostaglandin G2 (a product generated by the COX enzyme) or on the fluorometric detection of intermediate generated by the 5-LOX enzyme. The experiments were conducted according to the manufacturers’ instructions.
For the determination of COX-2 inhibitory activity, tested compounds were dissolved in DMSO (5 mM stock solutions) and then diluted with the same solvent to obtain test solutions. Test solutions were further diluted 5X with COX assay buffer (2 µL of test solution and 8 µL COX assay buffer). […] Solvent control (SC) was prepared by adding 2 µL DMSO and 8 µL COX assay buffer, while sample (S) and enzyme control (EC) were prepared by adding 10 µL of diluted test solution and COX assay buffer, respectively, into assigned wells. For the determination of 5-LOX inhibitory activity, tested compounds were also dissolved in DMSO to prepare stock solutions with the same concentration (5mM), which were then diluted with the same solvent to obtain test solutions. Subsequently, test solutions were added to corresponding wells (2 µL).

Turning to `COc1ccc2cc([C@H](C)C(=O)NC(=S)Nc3ccc(F)cc3)ccc2c1` [Compound 1, (S)-N-((4-fluorophenyl)carbamothioyl)-2-(6-methoxynaphthalen-2-yl)propanamide], the inhibition at 10 µM came to 24.7 ± 1.11%.
As to `COc1ccc(NC(=S)NC(=O)[C@@H](C)c2ccc3cc(OC)ccc3c2)cc1` [Compound 2, (S)-2-(6-methoxynaphthalen-2-yl)-N-((4-methoxyphenyl)carbamothioyl)propanamide], the inhibition at 10 µM came to 18.8 ± 4.37%.
For `CCOc1ccc(NC(=S)NC(=O)[C@@H](C)c2ccc3cc(OC)ccc3c2)cc1` [Compound 3, (S)-N-((4-ethoxyphenyl)carbamothioyl)-2-(6-methoxynaphthalen-2-yl)propanamide], the inhibition at 10 µM amounted to 23.4 ± 0.57%.
With `COc1cccc(NC(=S)NC(=O)[C@@H](C)c2ccc3cc(OC)ccc3c2)c1` [Compound 4, (S)-2-(6-methoxynaphthalen-2-yl)-N-((3-methoxyphenyl)carbamothioyl)propanamide] the figure was 37.71 ± 0.28%; with `COc1ccc2cc([C@H](C)C(=O)NC(=S)Nc3ccc(C(C)=O)cc3)ccc2c1` [Compound 5, (S)-N-((4-acetylphenyl)carbamothioyl)-2-(6-methoxynaphthalen-2-yl)propanamide], 19.6 ± 4.55%.
To `CCOC(=O)C(Cc1ccccc1)NC(=S)NC(=O)C(C)c1ccc2cc(OC)ccc2c1` [Compound 6, Ethyl(((S)-2-(6-methoxynaphthalen-2-yl)propanoyl)carbamothioyl)-L-phenylalaninate] belongs 24 ± 5.36%.
For `COC(=O)[C@H](Cc1cn(C)c2ccccc12)NC(=S)NC(=O)[C@@H](C)c1ccc2cc(OC)ccc2c1` [Compound 7, Methyl-N^α-(((S)-2-(6-methoxynaphthalen-2-yl)propanoyl)carbamothioyl)-1-methyltryptophanate], the inhibition at 10 µM stood at 24.2 ± 5.77%.
